Assays:
[1] = CF transport assay in EYPC⊃CF vesicles (carrier activity); format: biochemical; set-up: key to Carrier activity: ‐ – ‐: No detectable activity at pH 5.5 and 7.4
Text: The capability of POMs to act as membrane carriers was explored first in large unilamellar vesicles (LUVs) loaded with carboxyfluorescein (CF).^[ [54], [55] ^] We selected […] representative cationic peptides, heptaarginine (heptaArg), heptalysine (heptaLys), protamine, and polyarginine (polyArg), as test cargos. Inside the LUVs, the CF dye was encapsulated at self‐quenching concentrations. With a suitable carrier, heptaArg can be taken up into the vesicles, bind with entrapped CF, and shuttle back to the exterior, diluting the previously quenched CF, and thereby restoring its fluorescence (Figure 1c). In the time‐resolved fluorescence experiments (Figure 2a), to test whether a particular POM acts as molecular carrier, the CF emission was continuously monitored during the addition of the inorganic carrier (t = 60 s) and after injection of the impermeable selected cargo (t = 120 s). Toward the end of the experiment (t = 600 s), the surfactant Triton X‐100 was added to release all the entrapped CF and allow normalization of the intensity data.
A thin lipid film was prepared by evaporating a lipid solution of EYPC (egg yolk phosphatidylcholine, 25 mg) in CHCl3 (1 mL) with a stream of nitrogen and then dried in vacuo overnight. The dry film was rehydrated with 1 mL buffer (50 mM CF, 10 mM Hepes, pH 7.4 or 50 mM CF, 10 mM Tris, pH 7.4) for 30 min at room temperature, subjected to freeze–thaw cycles (7 times) and extrusions (15 times) through a polycarbonate membrane (pore size 100 nm). Extravesicular components were removed by size exclusion chromatography (NAP‐25 column Sephadex G‐25 DNA grade) with 10 mM Hepes, 107 mM NaCl, pH 7.4, or 10 mM Hepes, 107 mM NaCl, pH 7.4. Phospholipid concentration was calculated by the Stewart assay.^[ [81] ^]
Acidic vesicles were prepared analogously but the rehydration and elution buffer were 50 mM CF, 10 mM Mes, pH 5.5 and 10 mM Mes, 107 mM NaCl, pH 5.5. respectively.
Vesicles stock solutions (5–10 µL) were diluted with the corresponding buffer in a disposable plastic cuvette and gently stirred (total volume 2000 µL, final lipid concentration 13 µM). Carboxyfluorescein fluorescence was monitored at λ em = 517 nm (λ ex = 492 nm) as a function of time after addition of POMs at 60 s, analyte at 120 s and Triton X‐100 (24 µL 1.2% wt/vol) at 600 s to lyse the vesicles, for calibration. Fluorescence intensities were normalized to fractional emission as (1) It=It−I0/I∞−I0 where I 0 = I t before POM addition and […] after lysis. For Hill analysis, I t before lysis was defined as transport activity, Y, and plotted against POM concentration, c, and fitted to the Hill Equation (2), to afford the activity in absence of POM, Y 0, the maximal activity, Y max, the concentration needed to achieve 50% of maximal activity, EC 50, and the Hill coefficient, n (2) Y=Y0+Ymax−Y0/1+EC50/c^n
In the transport measurements, where different carriers (POMs) are tested with the same cargo, the activator efficiency (E) is determined by their capacity to transport the impermeable cargo to the intravesicular region and is characterized by Y max, its maximal activity, and EC 50, the effective activator concentration. An ideal carrier reaches high Y max at low EC 50. To count both factors, the activator efficiency is defined as (3) E=YmaxpEC50/f were pEC 50 is the negative logarithm of the EC 50, and f a scaling factor, which was set to 20.6 to calibrate the highest (previously known) activation efficiency, E, as 10.^[ [55] ^]

protamine = test: Supramolecular tandem assay of protamine hydrolysis (CX4/LCG); format: biochemical; settings: time scale of transport experiments (10 min); 0.5 µM protamine, LCG/CX4 reporter, 10 mM Hepes pH 7.5; POM 0-500 µM
Protocol: 5. Hydrolytic activity of [(PZrW11)2]8−
We devised a supramolecular tandem enzyme assay[25-29] to check to which degree [(PZrW11)2]8− promotes peptide fragmentation, which has been reported to occur on a time scale of days at 60 °C.[30-31] Supramolecular tandem assay is a technique that allows real-time continuous monitoring of enzymatic activity by following a change in the concentration of a substrate or product as it competitively displaces a fluorescent reporter dye from the cavity of a macrocyclic host.
The assay therefore relies on the differential binding of the macrocycle with the fluorescent dye, the enzymatic substrate, and the corresponding product.
We selected p-sulfonatocalix[4]arene (CX4) as macrocyclic host and lucigenin (LCG) as fluorescent dye, since protamine […]
conversion can be directly monitored through a decrease in fluorescence. Trypsin, which is an endopeptidase that hydrolyzes peptide bonds on the C -terminal side of the amino acid arginine ,[32-33] was used as an example, for comparison.
Only minor hydrolysis (<10%) of protamine by the [(PZrW11)2]8− was observed on the time scale relevant for the transport […]

[2] = Hydrolysis/stability of POMs in buffer by NMR
Protocol: First, their long‐term (24 h and longer) fate in aqueous solution (slightly acidic and neutral) was investigated by applying the active NMR nuclei in their composition (Table S9 and Figures S24–S37, see the Supporting Information for details).
NMR-spectroscopic characterization of identity and stability
NMR spectroscopy for all POMs tested was performed under experimental conditions.

[3] = 3 mM POM, 10 mM Hepes pH 7.5, 31P NMR integration

Substance: (Et2NH2)8[{α‐P^VW^VI 11O39Zr^IV(µ‐OH)(H2O)}2]·7H2O [[(PZrW11)2]^8‒]
- Carrier activity ([1]; EYPC vesicles, pH 5.5 and 7.4, cargos heptaArg, protamine, polyArg ([AlMo6]: heptaArg and protamine only)): ‐ – ‐ ^k)
- Transport activity (in words) ([1]; EYPC⊃CF vesicles, neutral pH, carrier then cargo): neither transport activity nor membrane disruption was observed
- Hydrolysis of protamine by the POM (protamine): < 10%
- % parent anion, Hepes pH 7.5 after 1 day [2, 3]: 99%
- % parent anion, Hepes pH 7.5 freshly prepared [2, 3]: 99%
- Hydrolysis/stability pH 7.5 ([2]; 10 mM Hepes or Tris, 107 mM NaCl, pH 7.4, NMR, long-term (24 h and longer)): Stable
- Stability at pH 7.5 by NMR (in words) ([2]; Hepes or Tris-HCl pH 7.5, 27Al, 31P or 183W NMR, fresh and aged 1-3 days): remain unchanged
